According to ChEMBL document CHEMBL5108027, “An unanticipated discovery of novel naphthalimidopropanediols as potential broad-spectrum antibacterial members” (Eur J Med Chem, 2022):
Converted amounts (≈) assume the structure as drawn.

What was measured:
Assay type in all cases: functional
[1] = test system: Staphylococcus aureus; experiment: Antibacterial activity against methicillin-resistant Staphylococcus aureus N315 measured by Muller-Hinton broth based microdilution assay
[2] = test system: Enterococcus faecalis; experiment: Antibacterial activity against Enterococcus faecalis measured by Muller-Hinton broth based microdilution assay
[3] = test system: Staphylococcus aureus; experiment: Antibacterial activity against Staphylococcus aureus measured by Muller-Hinton broth based microdilution assay
[4] = test system: Staphylococcus aureus; experiment: Antibacterial activity against Staphylococcus aureus ATCC 25923 measured by Muller-Hinton broth based microdilution assay
[5] = test system: Staphylococcus aureus; experiment: Antibacterial activity against Staphylococcus aureus ATCC 29213 measured by Muller-Hinton broth based microdilution assay
[6] = test system: Klebsiella pneumoniae; experiment: Antibacterial activity against Klebsiella pneumoniae measured by Muller-Hinton broth based microdilution assay
[7] = test system: Escherichia coli; experiment: Antibacterial activity against Escherichia coli measured by Muller-Hinton broth based microdilution assay
[8] = test system: Pseudomonas aeruginosa; experiment: Antibacterial activity against Pseudomonas aeruginosa measured by Muller-Hinton broth based microdilution assay
[9] = test system: Acinetobacter baumannii; experiment: Antibacterial activity against Acinetobacter baumannii measured by Muller-Hinton broth based microdilution assay
[10] = test system: Pseudomonas aeruginosa; experiment: Antibacterial activity against Pseudomonas aeruginosa ATCC 27853 measured by Muller-Hinton broth based microdilution assay
[11] = test system: Escherichia coli; experiment: Antibacterial activity against Escherichia coli ATCC 25922 measured by Muller-Hinton broth based microdilution assay

Row | SMILES | MIC [1] | MIC [2] | MIC [3] | MIC [4] | MIC [5] | MIC [6] | MIC [7] | MIC [8] | MIC [9] | MIC [10] | MIC [11]
1 | O=C1c2cccc3c(N/N=C/c4ccco4)ccc(c23)C(=O)N1C(CO)CO | 32 mg/L (≈ 84.3 µM) | 32 mg/L (≈ 84.3 µM) | 32 mg/L (≈ 84.3 µM) | 32 mg/L (≈ 84.3 µM) | 32 mg/L (≈ 84.3 µM) | 64 mg/L (≈ 169 µM) | 32 mg/L (≈ 84.3 µM) | 32 mg/L (≈ 84.3 µM) | 32 mg/L (≈ 84.3 µM) | 16 mg/L (≈ 42.2 µM) | 64 mg/L (≈ 169 µM)
2 | O=C1c2cccc3c(N/N=C/c4ccc(O)cc4O)ccc(c23)C(=O)N1C(CO)CO | 16 mg/L (≈ 38 µM) | 16 mg/L (≈ 38 µM) | 16 mg/L (≈ 38 µM) | 16 mg/L (≈ 38 µM) | 64 mg/L (≈ 152 µM) | 4 mg/L (≈ 9.49 µM) | 64 mg/L (≈ 152 µM) | 64 mg/L (≈ 152 µM) | 64 mg/L (≈ 152 µM) | 32 mg/L (≈ 75.9 µM) | 32 mg/L (≈ 75.9 µM)
3 | O=C1c2cccc3c(N/N=C/c4cccc(O)c4)ccc(c23)C(=O)N1C(CO)CO | 128 mg/L (≈ 316 µM) | 128 mg/L (≈ 316 µM) | 256 mg/L (≈ 631 µM) | 32 mg/L (≈ 78.9 µM) | 256 mg/L (≈ 631 µM) | 128 mg/L (≈ 316 µM) | 256 mg/L (≈ 631 µM) | 256 mg/L (≈ 631 µM) | 256 mg/L (≈ 631 µM) | 256 mg/L (≈ 631 µM) | 256 mg/L (≈ 631 µM)
4 | O=C1c2cccc3c(N/N=C/c4ccc(C(F)(F)F)cc4)ccc(c23)C(=O)N1C(CO)CO | 64 mg/L (≈ 140 µM) | 4 mg/L (≈ 8.74 µM) | 8 mg/L (≈ 17.5 µM) | 32 mg/L (≈ 70 µM) | 2 mg/L (≈ 4.37 µM) | 4 mg/L (≈ 8.74 µM) | 32 mg/L (≈ 70 µM) | 16 mg/L (≈ 35 µM) | 64 mg/L (≈ 140 µM) | 8 mg/L (≈ 17.5 µM) | 32 mg/L (≈ 70 µM)
5 | O=C1c2cccc3c(N/N=C/c4ccc([N+](=O)[O-])cc4)ccc(c23)C(=O)N1C(CO)CO | 64 mg/L (≈ 147 µM) | 1 mg/L (≈ 2.3 µM) | 2 mg/L (≈ 4.6 µM) | 2 mg/L (≈ 4.6 µM) | 64 mg/L (≈ 147 µM) | 32 mg/L (≈ 73.7 µM) | 32 mg/L (≈ 73.7 µM) | 16 mg/L (≈ 36.8 µM) | 64 mg/L (≈ 147 µM) | 16 mg/L (≈ 36.8 µM) | 32 mg/L (≈ 73.7 µM)
6 | O=C1c2cccc3c(N/N=C/c4cccc(F)c4)ccc(c23)C(=O)N1C(CO)CO | 32 mg/L (≈ 78.5 µM) | 32 mg/L (≈ 78.5 µM) | 16 mg/L (≈ 39.3 µM) | 64 mg/L (≈ 157 µM) | 64 mg/L (≈ 157 µM) | 2 mg/L (≈ 4.91 µM) | 64 mg/L (≈ 157 µM) | 32 mg/L (≈ 78.5 µM) | 64 mg/L (≈ 157 µM) | 32 mg/L (≈ 78.5 µM) | 64 mg/L (≈ 157 µM)
7 | O=C1c2cccc3c(N/N=C/c4cc(Cl)ccc4O)ccc(c23)C(=O)N1C(CO)CO | 1 mg/L (≈ 2.27 µM) | 16 mg/L (≈ 36.4 µM) | 32 mg/L (≈ 72.8 µM) | 2 mg/L (≈ 4.55 µM) | 64 mg/L (≈ 146 µM) | 64 mg/L (≈ 146 µM) | 64 mg/L (≈ 146 µM) | 2 mg/L (≈ 4.55 µM) | 32 mg/L (≈ 72.8 µM) | 32 mg/L (≈ 72.8 µM) | 32 mg/L (≈ 72.8 µM)
8 | O=C1c2cccc3c(N/N=C/c4cccs4)ccc(c23)C(=O)N1C(CO)CO | 4 mg/L (≈ 10.1 µM) | 16 mg/L (≈ 40.5 µM) | 64 mg/L (≈ 162 µM) | 64 mg/L (≈ 162 µM) | 8 mg/L (≈ 20.2 µM) | 4 mg/L (≈ 10.1 µM) | 32 mg/L (≈ 80.9 µM) | 64 mg/L (≈ 162 µM) | 64 mg/L (≈ 162 µM) | 32 mg/L (≈ 80.9 µM) | 32 mg/L (≈ 80.9 µM)
9 | C#CCn1cc(/C=N/Nc2ccc3c4c(cccc24)C(=O)N(C(CO)CO)C3=O)c2ccccc21 | 8 mg/L (≈ 17.1 µM) | 16 mg/L (≈ 34.3 µM) | 0.5 mg/L (≈ 1.07 µM) | 8 mg/L (≈ 17.1 µM) | 1 mg/L (≈ 2.14 µM) | 4 mg/L (≈ 8.57 µM) | 64 mg/L (≈ 137 µM) | 32 mg/L (≈ 68.6 µM) | 16 mg/L (≈ 34.3 µM) | 4 mg/L (≈ 8.57 µM) | 16 mg/L (≈ 34.3 µM)
10 | O=C1c2cccc3c(N/N=C/c4ccc(O)c(O)c4O)ccc(c23)C(=O)N1C(CO)CO | 16 mg/L (≈ 36.6 µM) | 8 mg/L (≈ 18.3 µM) | 4 mg/L (≈ 9.14 µM) | 32 mg/L (≈ 73.2 µM) | 64 mg/L (≈ 146 µM) | 2 mg/L (≈ 4.57 µM) | 64 mg/L (≈ 146 µM) | 64 mg/L (≈ 146 µM) | 16 mg/L (≈ 36.6 µM) | 4 mg/L (≈ 9.14 µM) | 16 mg/L (≈ 36.6 µM)
11 | O=C(Cn1cc(/C=N/Nc2ccc3c4c(cccc24)C(=O)N(C(CO)CO)C3=O)c2ccccc21)N1CCOCC1 | 256 mg/L (≈ 461 µM) | 128 mg/L (≈ 230 µM) | 128 mg/L (≈ 230 µM) | 64 mg/L (≈ 115 µM) | 128 mg/L (≈ 230 µM) | 256 mg/L (≈ 461 µM) | 256 mg/L (≈ 461 µM) | 256 mg/L (≈ 461 µM) | 128 mg/L (≈ 230 µM) | 128 mg/L (≈ 230 µM) | 256 mg/L (≈ 461 µM)
12 | O=C1c2cccc3c(N/N=C/c4ccc(O)c(Cl)c4)ccc(c23)C(=O)N1C(CO)CO | 64 mg/L (≈ 146 µM) | 64 mg/L (≈ 146 µM) | 64 mg/L (≈ 146 µM) | 32 mg/L (≈ 72.8 µM) | 64 mg/L (≈ 146 µM) | 64 mg/L (≈ 146 µM) | 16 mg/L (≈ 36.4 µM) | 8 mg/L (≈ 18.2 µM) | 64 mg/L (≈ 146 µM) | 32 mg/L (≈ 72.8 µM) | 64 mg/L (≈ 146 µM)
13 | N#Cc1ccc(/C=N/Nc2ccc3c4c(cccc24)C(=O)N(C(CO)CO)C3=O)cc1 | 32 mg/L (≈ 77.2 µM) | 8 mg/L (≈ 19.3 µM) | 4 mg/L (≈ 9.65 µM) | 8 mg/L (≈ 19.3 µM) | 2 mg/L (≈ 4.83 µM) | 2 mg/L (≈ 4.83 µM) | 32 mg/L (≈ 77.2 µM) | 32 mg/L (≈ 77.2 µM) | 32 mg/L (≈ 77.2 µM) | 4 mg/L (≈ 9.65 µM) | 16 mg/L (≈ 38.6 µM)
